Measured values as given in patent publication US12398117B2, “Heteroarylamidopyridinol derivative and pharmaceutical composition comprising same as active ingredient for prevention or treatment of autoimmune disease” (INNOVO THERAPEUTICS INC., priority 2019, dated 2025).

How the values were obtained:
[1] = tested on: adhesion of intestinal epithelial cells (HT-29) and monocytic cells (U937) induced by TNF-α; assay: Inhibition of TNF-α-induced adhesion of monocytes and intestinal epithelial cells; assay type: cell-based, human; details: for inhibition at 1 µM: Homo sapiens, read-out: Inhibitory activity (%)
Protocol: HT-29 human colon cancer-derived epithelial cells and U937 human-derived monocytes were cultured in RPMI 1640 medium containing 10% FBS and 1% penicillin/streptomycin (PS) in a 37° C., 5% CO2 incubator. When the cells grew more than 80% of the bottom area of the culture flask, they were passaged at a ratio of 1:3 and used in this experiment. HT-29 cells were cultured in a 24-well plate at the density of 2×10^5 cells/cm^2, and the test drug was pretreated in a medium containing 1% FBS and 1% PS for 1 hour. Thereafter, 10 μg/mL of BCECF-AM was treated thereto and reacted at 37° C. for 30 minutes. U937 cells loaded with BCECF and TNF-α (10 ng/mL) were reacted with HT-29 cells previously treated with the test drug at 37° C. for 3 hours. Upon completion of the reaction, the medium was removed, and the culture flask was washed twice with PBS to remove non-adherent U937 cells. In the next step, the cells were lysed by treating with 0.1% Triton X-100 (0.1 M Tris) and reacted at room temperature for 30 minutes. Then, fluorescence was measured and quantified using a fluostar optima microplate reader (BMG Labtechnologies, Germany) (Carvalho et al., 1996; Thapa et al., 2008).

[2] = tested on: adhesion of intestinal epithelial cells (HT-29) and monocytic cells (U937) induced by IL-6; assay: Inhibition of IL-6-induced adhesion of monocytes and intestinal epithelial cells; assay type: cell-based, human; details: for inhibition at 1 µM: Homo sapiens, 3 h, test drug 1 μM, IL-6 10 ng/mL, HT-29/U937, read-out: inhibitory activity (%)
Protocol: The inhibitory activity test for intestinal epithelial cell-monocyte adhesion by IL-6 was performed using the same method as in the case of TNF-α. HT-29 cells were cultured in a 24-well plate at the density of 2×10^5 cells/cm^2, and the test drug was pretreated in a medium containing 1% FBS and 1% PS for 1 hour. Thereafter, 10 μg/mL of BCECF-AM was treated thereto and reacted at 37° C. for 30 minutes. U937 cells loaded with BCECF and IL-6 (10 ng/mL) were reacted with HT-29 cells previously treated with the test drug at 37° C. for 3 hours. Upon completion of the reaction, the medium was removed, and the culture flask was washed twice with PBS to remove non-adherent U937 cells. In the next step, the cells were lysed by treating with 0.1% Triton X-100 (0.1 M Tris) and reacted at room temperature for 30 minutes. Then, fluorescence was measured and quantified using a fluostar optima microplate reader (BMG Labtechnologies, Germany).

[3] = test drug 1 μM, TNF-α 10 ng/mL, HT-29/U937

Row | SMILES | IC50 ([1]; inhibition of adhesion by TNF-α) [mM] | Inhibitory activity (%) [1, 3] [%] | IC50 ([2]; inhibition of adhesion by IL-6) [mM] | inhibition at 1 µM [1, 3] [%] | inhibition at 1 µM [2] [%]
1 | Nc1ccc(O)c(C(=O)O)c1 [Compound 5-ASA, 5-ASA, reference compound] | 18.1 | 3.8 | 25.1 |  | 
2 | Cc1nc(NC(=O)c2cc3ccccc3[nH]2)c(C)c(C)c1O [Compound X-01, N-(5-hydroxy-3,4,6-trimethylpyridin-2-yl)-1H-indole-2-carboxamide] |  |  |  | 43.2 | 34
3 | Cc1nc(NC(=O)c2cc3ccccc3n2C)c(C)c(C)c1O [Compound X-02, N-(5-hydroxy-3,4,6-trimethylpyridin-2-yl)-1-methyl-1H-indole-2-carboxamide] |  |  |  | 29.1 | 21.1
4 | Cc1nc(NC(=O)c2cc3cccc(Br)c3[nH]2)c(C)c(C)c1O [Compound X-03, 7-bromo-N-(5-hydroxy-3,4,6-trimethylpyridin-2-yl)-1H-indole-2-carboxamide] |  |  |  | 14.5 | 5
5 | Cc1nc(NC(=O)c2cc3ccc(Cl)cc3[nH]2)c(C)c(C)c1O [Compound X-04, 6-chloro-N-(5-hydroxy-3,4,6-trimethylpyridin-2-yl)-1H-indole-2-carboxamide] |  |  |  | 30.3 | 25.1
6 | Cc1nc(NC(=O)c2cc3ccc(Br)cc3[nH]2)c(C)c(C)c1O [Compound X-05, 6-bromo-N-(5-hydroxy-3,4,6-trimethylpyridin-2-yl)-1H-indole-2-carboxamide] |  |  |  | 7.5 | 3.4
7 | Cc1nc(NC(=O)c2cc3cc(F)ccc3[nH]2)c(C)c(C)c1O [Compound X-06, 5-fluoro-N-(5-hydroxy-3,4,6-trimethylpyridin-2-yl)-1H-indole-2-carboxamide] |  |  |  | 49.9 | 42.9
8 | Cc1nc(NC(=O)c2cc3cc(Cl)ccc3[nH]2)c(C)c(C)c1O [Compound X-08, 5-chloro-N-(5-hydroxy-3,4,6-trimethylpyridin-2-yl)-1H-indole-2-carboxamide] |  |  |  | 31 | 21.3
9 | Cc1nc(NC(=O)c2cc3cc(C(F)(F)F)ccc3[nH]2)c(C)c(C)c1O [Compound X-10, N-(5-hydroxy-3,4,6-trimethylpyridin-2-yl)-5-(trifluoromethyl)-1H-indole-2-carboxamide] |  |  |  | ≥ 50 | 47.9
10 | Cc1nc(NC(=O)c2cc3cc(OC(F)(F)F)ccc3[nH]2)c(C)c(C)c1O [Compound X-11, N-(5-hydroxy-3,4,6-trimethylpyridin-2-yl)-5-(trifluoromethoxy)-1H-indole-2-carboxamide] |  |  |  | 32.8 | 24.2
11 | COc1ccc2cc(C(=O)Nc3nc(C)c(O)c(C)c3C)[nH]c2c1 [Compound X-12, N-(5-hydroxy-3,4,6-trimethylpyridin-2-yl)-6-methoxy-1H-indole-2-carboxamide] |  |  |  | ≥ 50 | 46
12 | COc1ccc2[nH]c(C(=O)Nc3nc(C)c(O)c(C)c3C)cc2c1 [Compound X-13, N-(5-hydroxy-3,4,6-trimethylpyridin-2-yl)-5-methoxy-1H-indole-2-carboxamide] |  |  |  | 36.7 | 23.4
13 | COc1cc2cc(C(=O)Nc3nc(C)c(O)c(C)c3C)[nH]c2cc1OC [Compound X-14, N-(5-hydroxy-3,4,6-trimethylpyridin-2-yl)-5,6-dimethoxy-1H-indole-2-carboxamide] |  |  |  | 36.9 | 29.5
14 | Cc1nc(NC(=O)c2cc3ccccc3o2)c(C)c(C)c1O [Compound X-15, N-(5-hydroxy-3,4,6-trimethylpyridin-2-yl)benzofuran-2-carboxamide] |  |  |  | 4.8 | 42.4
15 | Cc1nc(NC(=O)c2cc3cc(Cl)ccc3o2)c(C)c(C)c1O [Compound X-16, 5-chloro-N-(5-hydroxy-3,4,6-trimethylpyridin-2-yl)benzofuran-2-carboxamide] |  |  |  | 25.1 | 15.1
16 | Cc1nc(NC(=O)c2cc3cc(Br)ccc3o2)c(C)c(C)c1O [Compound X-17, 5-bromo-N-(5-hydroxy-3,4,6-trimethylpyridin-2-yl)benzofuran-2-carboxamide] |  |  |  | 8.5 | 3.6
17 | COc1cccc2cc(C(=O)Nc3nc(C)c(O)c(C)c3C)oc12 [Compound X-18, N-(5-hydroxy-3,4,6-trimethylpyridin-2-yl)-7-methoxybenzofuran-2-carboxamide] |  |  |  | ≥ 50 | 48.8
18 | Cc1nc(NC(=O)c2oc3ccccc3c2C)c(C)c(C)c1O [Compound X-19, N-(5-hydroxy-3,4,6-trimethylpyridin-2-yl)-3-methylbenzofuran-2-carboxamide] |  |  |  | 25.1 | 18.7
19 | Cc1nc(NC(=O)c2cc3ccccc3s2)c(C)c(C)c1O [Compound X-20, N-(5-hydroxy-3,4,6-trimethylpyridin-2-yl)benzo[b]thiophene-2-carboxamide] |  |  |  | 16.5 | 27
20 | Cc1nc(NC(=O)c2sc3ccccc3c2Cl)c(C)c(C)c1O [Compound X-21, 3-chloro-N-(5-hydroxy-3,4,6-trimethylpyridin-2-yl)benzo[b]thiophene-2-carboxamide] |  |  |  | 13.4 | 11.4
21 | Cc1nc(NC(=O)c2sc3ccccc3c2Br)c(C)c(C)c1O [Compound X-22, 3-bromo-N-(5-hydroxy-3,4,6-trimethylpyridin-2-yl)benzo[b]thiophene-2-carboxamide] |  |  |  | 26.8 | 19.7
22 | Cc1ccc2c(Cl)c(C(=O)Nc3nc(C)c(O)c(C)c3C)sc2c1 [Compound X-23, 3-chloro-N-(5-hydroxy-3,4,6-trimethylpyridin-2-yl)-6-methylbenzo[b]thiophene-2-carboxamide] |  |  |  | 9.1 | 8.7
23 | Cc1nc(NC(=O)c2sc3cc(Cl)ccc3c2Cl)c(C)c(C)c1O [Compound X-25, 3,6-dichloro-N-(5-hydroxy-3,4,6-trimethylpyridin-2-yl)benzo[b]thiophene-2-carboxamide] |  |  |  | 19.5 | 9
24 | COc1ccc2c(Cl)c(C(=O)Nc3nc(C)c(O)c(C)c3C)sc2c1 [Compound X-26, 3-chloro-N-(5-hydroxy-3,4,6-trimethylpyridin-2-yl)-6-methoxybenzo[b]thiophene-2-carboxamide] |  |  |  | 45.1 | 38.4
25 | COc1c(C)nc(NC(=O)c2sc3cc(F)ccc3c2Cl)c(C)c1C [XI-01, 3-chloro-6-fluoro-N-(5-methoxy-3,4,6-trimethylpyridin-2-yl)benzo[b]thiophene-2-carboxamide] |  |  |  | 9.3 | 4.7
26 | COc1c(C)nc(N(C)C(=O)c2sc3cc(F)ccc3c2Cl)c(C)c1C [XI-02, 3-chloro-6-fluoro-N-(5-methoxy-3,4,6-trimethylpyridin-2-yl)-N-methylbenzo[b]thiophene-2-carboxamide] |  |  |  | 18.5 | 10.9
27 | Cc1nc(NC(=O)c2sc3cc(F)ccc3c2Cl)c(C)c(C)c1OCC(=O)NC(C)C [XI-03, 3-chloro-6-fluoro-N-(5-(2-(isopropylamino)-2-oxoethoxy)-3,4,6-trimethylpyridin-2-yl)benzo[b]thiophene-2-carboxamide] |  |  |  | ≥ 50 | 49.9
